Measurements: patent US10975051B2, “Phenylsulfonamido-benzofuran derivatives and uses thereof in the treatment of proliferative diseases” (Memorial Sloan-Kettering Cancer Center, priority 2015, dated 2021)

Tests used:
BCL-XL = BCL-XL (Homo sapiens, UniProt Q07817); conditions: Oltersdorf et al., Nature, 2005; cited from earlier work
MCL-1 = MCL-1 (Homo sapiens, UniProt Q07820); conditions: background statement; cited from earlier work
BCL-2 = BCL-2 (Homo sapiens, UniProt P10415); conditions: Oltersdorf et al., Nature, 2005; cited from earlier work
BCL-2, sequence (P10415 whole entry, species assumed): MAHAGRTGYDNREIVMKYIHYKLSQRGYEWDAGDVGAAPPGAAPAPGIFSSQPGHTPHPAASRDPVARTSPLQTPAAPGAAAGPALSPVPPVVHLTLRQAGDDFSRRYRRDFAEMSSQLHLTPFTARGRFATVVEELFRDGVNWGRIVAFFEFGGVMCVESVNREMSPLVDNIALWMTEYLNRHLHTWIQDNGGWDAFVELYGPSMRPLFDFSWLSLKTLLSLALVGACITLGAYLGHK

BCL-W = target: T1, BCL-W (Homo sapiens, UniProt Q92843); conditions: Oltersdorf et al., Nature, 2005; cited from earlier work
T1 sequence (Q92843 1-193): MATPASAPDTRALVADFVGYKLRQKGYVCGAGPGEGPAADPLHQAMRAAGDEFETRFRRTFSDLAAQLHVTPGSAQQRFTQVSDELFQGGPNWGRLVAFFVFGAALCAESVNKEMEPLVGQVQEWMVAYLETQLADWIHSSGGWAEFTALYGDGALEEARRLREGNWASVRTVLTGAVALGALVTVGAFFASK

[1] = tested on: MCL-1-addicted cancer cell-line H82; assay: apoptosis induction in MCL-1-addicted cancer cell line H82; format: cell-based; conditions: H82 cells, FIG. 1B
[2] = tested on: MCL-1-addicted cancer cell-line, H23; assay: apoptosis induction in MCL-1-addicted cancer cell line H23; format: cell-based; conditions: H23 cells; for induction of apoptosis: FIG. 1B
[3] = tested on: DMS53, SW1417, and H82 cell lines; assay: apoptotic induction in DMS53, SW1417 and H82 cell lines (selectively addicted to BCL-2, BCL-XL and MCL-1); format: cell-based; conditions: H82 versus DMS53 and SW1417, FIG. 2B

MCL-1, sequence (Q07820 whole entry, species assumed): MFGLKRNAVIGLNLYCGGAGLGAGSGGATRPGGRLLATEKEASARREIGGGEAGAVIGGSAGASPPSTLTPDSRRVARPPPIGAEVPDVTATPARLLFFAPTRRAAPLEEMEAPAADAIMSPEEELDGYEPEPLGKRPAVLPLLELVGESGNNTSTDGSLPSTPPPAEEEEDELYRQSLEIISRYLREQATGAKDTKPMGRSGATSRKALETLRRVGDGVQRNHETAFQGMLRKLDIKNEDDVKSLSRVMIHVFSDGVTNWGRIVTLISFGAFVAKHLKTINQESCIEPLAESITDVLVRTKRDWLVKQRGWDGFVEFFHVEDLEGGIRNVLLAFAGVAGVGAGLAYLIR
BCL-XL, sequence (Q07817 whole entry, species assumed): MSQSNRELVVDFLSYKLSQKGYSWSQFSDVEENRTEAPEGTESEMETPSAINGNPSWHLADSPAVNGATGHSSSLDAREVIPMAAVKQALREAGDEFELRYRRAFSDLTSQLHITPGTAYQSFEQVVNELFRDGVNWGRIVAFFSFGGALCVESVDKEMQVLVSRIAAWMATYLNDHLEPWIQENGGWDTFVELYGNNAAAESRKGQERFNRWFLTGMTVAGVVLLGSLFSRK

Structure (SMILES) | binding affinity to BCL-XL (BCL-XL) | inhibition of MCL-1 (MCL-1) | binding affinity to BCL-2 (BCL-2) | binding affinity to BCL-W (BCL-W) | induction of apoptosis ([1]; 1 µM of compound) | induction of apoptosis ([1]; 1 μM of compound) | induction of apoptosis ([2]; 1 µM of compound) | induction of apoptosis ([2]; 1 μM of compound) | EC50 ([2]; Homo sapiens, NCI-H23, FIG. 1A, read-out: EC50 of inducing apoptosis) | selectivity of apoptosis induction in MCL-1 addicted cancer cell line over BCL-2 or BCL-XL addicted cancer cell lines [3]
CC1(C)CCC(c2ccc(Cl)cc2)=C(CN2CCN(c3ccc(C(=O)NS(=O)(=O)c4ccc(N[C@H](CCN5CCOCC5)CSc5ccccc5)c(S(=O)(=O)C(F)(F)F)c4)cc3)CC2)C1 [ABT-263] | high affinity | do not inhibit | high affinity | high affinity |  |  |  |  |  | 
CN(C)CC[C@H](CSc1ccccc1)Nc1ccc(S(=O)(=O)NC(=O)c2ccc(N3CCN(Cc4ccccc4-c4ccc(Cl)cc4)CC3)cc2)cc1[N+](=O)[O-] [ABT-737, (R)-4-(4-((4′-chloro-[1,1′-biphenyl]-2-yl)methyl)piperazin-1-yl)-N-((4-((−4-(dimethylamino)-1-(phenylthio)butan-2-yl)amino)-3-nitrophenyl)sulfonyl)benzamide] | high affinity | do not inhibit | high affinity | high affinity |  |  |  |  |  | 
CCOC(=O)c1c(C)oc2cc(Br)c(NS(=O)(=O)c3ccc(OC)cc3)cc12 [Compound 1] |  |  |  |  | robust apoptosis | robust apoptosis | robust apoptosis | robust apoptosis | 600 nM | selectively induce apoptosis
